In ChEMBL document CHEMBL1201861, “Genomics of Drug Sensitity in Cancer screening data, Wellcome Trust Sanger Institute”:
pIC50: −log10 of the molar value.

What was measured:
Experiment in all cases: cells
CW-2 = type: functional, cell-based, Homo sapiens; conditions: Homo sapiens, CW-2;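 also: growth inhibition of CW-2 cells, read out by a cell viability assay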
Description: SANGER: Inhibition of human CW-2 cell growth in a cell viability assay.

D-502MG = type: functional, cell-based, Homo sapiens; conditions: Homo sapiens, D-502MG
Description: SANGER: Inhibition of human D-502MG cell growth in a cell viability assay.

DMS-114 = type: functional, cell-based, Homo sapiens; conditions: Homo sapiens, DMS-114
DMS-79 = type: functional, cell-based; conditions: Homo sapiens;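 also: growth inhibition measured with a cell viability assay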
Description: SANGER: Inhibition of human DMS-79 cell growth in a cell viability assay.

EM-2 = type: functional, cell-based; conditions: Homo sapiens;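 also: growth inhibition of EM-2 cells, read out with a cell viability assay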
Description: SANGER: Inhibition of human EM-2 cell growth in a cell viability assay.

ES3 = type: functional, cell-based, Homo sapiens; conditions: Homo sapiens, ES3;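 also: growth inhibition of ES3 cells, read out with a cell viability assay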
EW-3 = type: functional, cell-based; conditions: Homo sapiens;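 also: cell viability assay read-out, IC50 reflects inhibition of growth of the EW-3 cells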
Description: SANGER: Inhibition of human EW-3 cell growth in a cell viability assay.

FaDu = type: functional, cell-based, Homo sapiens; conditions: Homo sapiens, FaDu;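 also: cell viability readout of growth inhibition in FaDu cells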
Description: SANGER: Inhibition of human FADU cell growth in a cell viability assay.

G-402 = type: functional, cell-based, Homo sapiens; conditions: Homo sapiens, G-402
Description: SANGER: Inhibition of human G-402 cell growth in a cell viability assay.

HCC1954 = type: functional, cell-based, Homo sapiens; conditions: Homo sapiens, HCC1954;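 also: growth inhibition of human HCC1954 cells, read out with a cell viability assay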
Description: SANGER: Inhibition of human HCC1954 cell growth in a cell viability assay.

HH = type: functional, cell-based; conditions: Homo sapiens
Description: SANGER: Inhibition of human HH cell growth in a cell viability assay.

HuTu80 = type: functional, cell-based, Homo sapiens, HUTU-80; conditions: Homo sapiens, HuTu80;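 also: growth inhibition of HuTu80 human cells, determined with a cell viability readout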
Description: SANGER: Inhibition of human HUTU-80 cell growth in a cell viability assay.

JEG-3 = type: functional, cell-based, Homo sapiens; conditions: Homo sapiens, JEG-3;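 also: growth inhibition of human JEG-3 cells, read out with a cell viability assay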
Description: SANGER: Inhibition of human JEG-3 cell growth in a cell viability assay.

KY821 = type: functional, cell-based; conditions: Homo sapiens;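 also: growth inhibition of human KY821 cells, read out by a cell viability assay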
LB831-BLC = type: functional, cell-based, Homo sapiens; conditions: Homo sapiens, LB831-BLC;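 also: growth inhibition of LB831-BLC cells, read out with a cell viability assay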
Description: SANGER: Inhibition of human LB831-BLC cell growth in a cell viability assay.

LS-1034 = type: functional, cell-based, Homo sapiens; conditions: Homo sapiens, LS-1034
Description: SANGER: Inhibition of human LS-1034 cell growth in a cell viability assay.

M14 = type: functional, cell-based, Homo sapiens; conditions: Homo sapiens, M14;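 also: growth inhibition of M14 cells, read out with a cell viability assay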
Description: SANGER: Inhibition of human M14 cell growth in a cell viability assay.

MDA-MB-175-VII = type: functional, cell-based, Homo sapiens; conditions: Homo sapiens, MDA-MB-175-VII
MLMA = type: functional, cell-based, Homo sapiens; conditions: Homo sapiens, MLMA;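 also: growth inhibition of MLMA cells (human), determined through a cell viability readout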
Description: SANGER: Inhibition of human MLMA cell growth in a cell viability assay.

MMAC-SF = type: functional, cell-based, Homo sapiens; conditions: Homo sapiens, MMAC-SF;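 also: growth inhibition of human MMAC-SF cells, read out with a cell viability assay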
Description: SANGER: Inhibition of human MMAC-SF cell growth in a cell viability assay.

MV4-11 = type: functional, cell-based, MV-4-11; conditions: Homo sapiens;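 also: cell viability readout measuring growth inhibition of human MV-4-11 cells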
Description: SANGER: Inhibition of human MV-4-11 cell growth in a cell viability assay.

Mo = type: functional, cell-based; conditions: Homo sapiens
Description: SANGER: Inhibition of human Mo-T cell growth in a cell viability assay.

NB10 = type: functional, cell-based, Homo sapiens; conditions: Homo sapiens, NB10;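 also: growth inhibition of NB10 cells, read out by a cell viability assay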
Description: SANGER: Inhibition of human NB10 cell growth in a cell viability assay.

NB13 = type: functional, cell-based, Homo sapiens; conditions: Homo sapiens, NB13;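 also: cell viability readout measuring growth inhibition of human NB13 cells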
Description: SANGER: Inhibition of human NB13 cell growth in a cell viability assay.

NCI-H1092 = type: functional, cell-based; conditions: Homo sapiens;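 also: cell growth inhibition measured with a cell viability assay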
Description: SANGER: Inhibition of human NCI-H1092 cell growth in a cell viability assay.

NCI-H1155 = type: functional, cell-based; conditions: Homo sapiens;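 also: cell growth inhibition measured by a viability assay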
Description: SANGER: Inhibition of human NCI-H1155 cell growth in a cell viability assay.

NCI-H1437 = type: functional, cell-based, Homo sapiens; conditions: Homo sapiens, NCI-H1437;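 also: growth inhibition of human NCI-H1437 cells, read out by a cell viability assay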
Description: SANGER: Inhibition of human NCI-H1437 cell growth in a cell viability assay.

NCI-H1581 = type: functional, cell-based, Homo sapiens; conditions: Homo sapiens, NCI-H1581;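 also: cell growth inhibition read out by a viability assay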
Description: SANGER: Inhibition of human NCI-H1581 cell growth in a cell viability assay.

NCI-H209 = type: functional, cell-based; conditions: Homo sapiens;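 also: growth inhibition of human NCI-H209 cells, measured by a cell viability assay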
Description: SANGER: Inhibition of human NCI-H209 cell growth in a cell viability assay.

NCI-H2170 = type: functional, cell-based, Homo sapiens; conditions: Homo sapiens, NCI-H2170;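 also: cell viability assay measuring growth inhibition of human NCI-H2170 cancer cells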
Description: SANGER: Inhibition of human NCI-H2170 cell growth in a cell viability assay.

SNU1 = type: functional, cell-based; conditions: Homo sapiens;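 also: growth inhibition of human NCI-SNU-1 cells, measured with a cell viability assay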
Description: SANGER: Inhibition of human NCI-SNU-1 cell growth in a cell viability assay.

NEC8 = type: functional, cell-based, Homo sapiens; conditions: Homo sapiens, NEC8;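 also: growth inhibition of human NEC8 cells, read out by a cell viability assay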
Description: SANGER: Inhibition of human NEC8 cell growth in a cell viability assay.

OE19 = type: functional, cell-based, Homo sapiens; conditions: Homo sapiens, OE19;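 also: growth inhibition of OE19 cells, measured through a cell viability read-out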
Description: SANGER: Inhibition of human OE19 cell growth in a cell viability assay.

P30-OHK = type: functional, cell-based; conditions: Homo sapiens;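 also: growth inhibition of the P30-OHK cell line, read out with a cell viability assay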
Description: SANGER: Inhibition of human P30-OHK cell growth in a cell viability assay.

PANC-03-27 = type: functional, cell-based, Homo sapiens; conditions: Homo sapiens, PANC-03-27
Description: SANGER: Inhibition of human PANC-03-27 cell growth in a cell viability assay.

RCM-1 = type: functional, cell-based, Homo sapiens; conditions: Homo sapiens, RCM-1;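 also: growth inhibition of the RCM-1 line, determined with a cell viability readout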
Description: SANGER: Inhibition of human RCM-1 cell growth in a cell viability assay.

Ramos-2G6-4C10 = type: functional, cell-based; conditions: Homo sapiens;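 also: growth inhibition of the cell line, measured by a cell viability read-out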
Description: SANGER: Inhibition of human Ramos-2G6-4C10 cell growth in a cell viability assay.

SCC-4 = type: functional, cell-based, Homo sapiens; conditions: Homo sapiens, SCC-4;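 also: growth inhibition of human SCC-4 cells, read out as cell viability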
Description: SANGER: Inhibition of human SCC-4 cell growth in a cell viability assay.

SW1463 = type: functional, cell-based, Homo sapiens; conditions: Homo sapiens, SW1463;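 also: growth inhibition of SW1463 cells, determined with a cell viability assay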
Description: SANGER: Inhibition of human SW1463 cell growth in a cell viability assay.

SW-620 = type: functional, cell-based, Homo sapiens; conditions: Homo sapiens, SW-620;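 also: growth inhibition of human SW-620 cells, measured by a cell viability assay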
Description: SANGER: Inhibition of human SW620 cell growth in a cell viability assay.

CWR22R = type: functional, cell-based, Homo sapiens; conditions: Homo sapiens, 22Rv1;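 also: growth inhibition of 22Rv1 cells, read out with a cell viability assay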
Description: SANGER: Inhibition of human 22RV1 cell growth in a cell viability assay.

697 = type: functional, cell-based; conditions: Homo sapiens
Description: SANGER: Inhibition of human 697 cell growth in a cell viability assay.

8-MG-BA = type: functional, cell-based, Homo sapiens; conditions: Homo sapiens, 8-MG-BA;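 also: growth inhibition of 8-MG-BA cells, read out with a cell viability assay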
Description: SANGER: Inhibition of human 8-MG-BA cell growth in a cell viability assay.

AM-38 = type: functional, cell-based, Homo sapiens; conditions: Homo sapiens, AM-38;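 also: growth inhibition of AM-38 cells of human origin, read out by a cell viability assay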
BE-13 = type: functional, cell-based; conditions: Homo sapiens;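 also: growth inhibition of human BE-13 cells, measured with a cell viability assay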
Description: SANGER: Inhibition of human BE-13 cell growth in a cell viability assay.

BHY = type: functional, cell-based, Homo sapiens; conditions: Homo sapiens, BHY;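 also: cell growth inhibition read out by a viability assay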
BT-474 = type: functional, cell-based, Homo sapiens; conditions: Homo sapiens, BT-474
Description: SANGER: Inhibition of human BT-474 cell growth in a cell viability assay.

BXPC-3 = type: functional, cell-based, Homo sapiens; conditions: Homo sapiens, BXPC-3;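 also: growth inhibition of human BxPC-3 cells, read out by a cell viability assay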
Description: SANGER: Inhibition of human BxPC-3 cell growth in a cell viability assay.

C2BBe1 = type: functional, cell-based, Homo sapiens; conditions: Homo sapiens, C2BBe1;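 also: growth inhibition of C2BBe1 cells, read out through a viability assay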
Description: SANGER: Inhibition of human C2BBe1 cell growth in a cell viability assay.

U-87 MG = type: functional, cell-based, U-87MG ATCC; conditions: Homo sapiens;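 also: growth inhibition of the cells measured with a viability assay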
Description: SANGER: Inhibition of human U-87-MG cell growth in a cell viability assay.

U-251 = type: functional, cell-based, Homo sapiens; conditions: Homo sapiens, U-251;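 also: growth inhibition of human U-251 cells, read out through a cell viability assay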
Description: SANGER: Inhibition of human U251 cell growth in a cell viability assay.

UMC-11 = type: functional, cell-based, Homo sapiens; conditions: Homo sapiens, UMC-11;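 also: growth inhibition of UMC-11 cells, read out with a cell viability assay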
Description: SANGER: Inhibition of human UMC-11 cell growth in a cell viability assay.

COLO-684 = type: functional, cell-based; conditions: Homo sapiens
Description: SANGER: Inhibition of human COLO-684 cell growth in a cell viability assay.

Compound: Cc1ccc(Nc2nccc(N(C)c3ccc4c(C)n(C)nc4c3)n2)cc1S(N)(=O)=O [PAZOPANIB]
- pIC50 (CW-2): < 5.10
- pIC50 (D-502MG): 5.11
- pIC50 (DMS-114): < 5.10
- pIC50 (DMS-79): < 5.10
- pIC50 (EM-2): < 5.10
- pIC50 (ES3): < 5.10
- pIC50 (EW-3): < 5.10
- pIC50 (FaDu): < 5.10
- pIC50 (G-402): 6.27
- pIC50 (HCC1954): < 5.10
- pIC50 (HH): < 5.10
- pIC50 (HuTu80): 5.89
- pIC50 (JEG-3): < 5.10
- pIC50 (KY821): < 5.10
- pIC50 (LB831-BLC): 5.59
- pIC50 (LS-1034): < 5.10
- pIC50 (M14): < 5.10
- pIC50 (MDA-MB-175-VII): < 5.10
- pIC50 (MLMA): < 5.10
- pIC50 (MMAC-SF): < 5.10
- pIC50 (MV4-11): 5.87
- pIC50 (Mo): < 5.10
- pIC50 (NB10): < 5.10
- pIC50 (NB13): < 5.10
- pIC50 (NCI-H1092): < 5.10
- pIC50 (NCI-H1155): < 5.10
- pIC50 (NCI-H1437): < 5.10
- pIC50 (NCI-H1581): < 5.10
- pIC50 (NCI-H209): < 5.10
- pIC50 (NCI-H2170): < 5.10
- pIC50 (SNU1): < 5.10
- pIC50 (NEC8): < 5.10
- pIC50 (OE19): < 5.10
- pIC50 (P30-OHK): 5.26
- pIC50 (PANC-03-27): < 5.10
- pIC50 (RCM-1): < 5.10
- pIC50 (Ramos-2G6-4C10): < 5.10
- pIC50 (SCC-4): < 5.10
- pIC50 (SW1463): < 5.10
- pIC50 (SW-620): < 5.10
- pIC50 (CWR22R): < 5.10
- pIC50 697: < 5.10
- pIC50 (8-MG-BA): < 5.10
- pIC50 (AM-38): < 5.10
- pIC50 (BE-13): < 5.10
- pIC50 (BHY): < 5.10
- pIC50 (BT-474): < 5.10
- pIC50 (BXPC-3): < 5.10
- pIC50 (C2BBe1): < 5.10
- pIC50 (U-87 MG): < 5.10
- pIC50 (U-251): < 5.10
- pIC50 (UMC-11): < 5.10
- pIC50 (COLO-684): < 5.10

Compound: CN(c1ncccc1CNc1nc(Nc2ccc3c(c2)CC(=O)N3)ncc1C(F)(F)F)S(C)(=O)=O [PF-00562271]
- pIC50 (CW-2): < 5.59
- pIC50 (D-502MG): < 5.59
- pIC50 (DMS-114): < 5.59
- pIC50 (DMS-79): < 5.59
- pIC50 (EM-2): < 5.59
- pIC50 (ES3): < 5.59
- pIC50 (EW-3): < 5.59
- pIC50 (FaDu): < 5.59
- pIC50 (G-402): < 5.59
- pIC50 (HCC1954): < 5.59
- pIC50 (HH): < 5.59
- pIC50 (HuTu80): 5.84
- pIC50 (JEG-3): < 5.59
- pIC50 (KY821): < 5.59
- pIC50 (LB831-BLC): 5.70
- pIC50 (LS-1034): < 5.59
- pIC50 (M14): < 5.59
- pIC50 (MDA-MB-175-VII): < 5.59
- pIC50 (MLMA): < 5.59
- pIC50 (MMAC-SF): < 5.59
- pIC50 (MV4-11): 6.56
- pIC50 (Mo): < 5.59
- pIC50 (NB10): < 5.59
- pIC50 (NB13): < 5.59
- pIC50 (NCI-H1092): < 5.59
- pIC50 (NCI-H1155): < 5.59
- pIC50 (NCI-H1437): < 5.59
- pIC50 (NCI-H1581): < 5.59
- pIC50 (NCI-H209): < 5.59
- pIC50 (NCI-H2170): < 5.59
- pIC50 (SNU1): < 5.59
- pIC50 (NEC8): < 5.59
- pIC50 (OE19): < 5.59
- pIC50 (P30-OHK): < 5.59
- pIC50 (PANC-03-27): < 5.59
- pIC50 (RCM-1): < 5.59
- pIC50 (Ramos-2G6-4C10): < 5.59
- pIC50 (SCC-4): < 5.59
- pIC50 (SW1463): < 5.59
- pIC50 (SW-620): < 5.59
- pIC50 (CWR22R): < 5.59
- pIC50 697: < 5.59
- pIC50 (8-MG-BA): < 5.59
- pIC50 (AM-38): < 5.59
- pIC50 (BE-13): < 5.59
- pIC50 (BHY): 5.78
- pIC50 (BT-474): < 5.59
- pIC50 (BXPC-3): 5.63
- pIC50 (C2BBe1): < 5.59
- pIC50 (U-87 MG): < 5.59
- pIC50 (U-251): 5.76
- pIC50 (UMC-11): < 5.59
- pIC50 (COLO-684): < 5.59
